Legend:
[1] = tested on: RAD52; parameters: method as in Chandramouly et al., 2015; conditions: ref Chandramouly et al., 2015; cited from earlier work
[2] = molecular target: T1, RAD52 (Homo sapiens, UniProt P43351); assay: WaterLOGSY NMR binding to RAD52; conditions: 20-40 μM compound, 3.3 μM RAD52
T1 construct: made in house
T1 sequence (P43351 1-418): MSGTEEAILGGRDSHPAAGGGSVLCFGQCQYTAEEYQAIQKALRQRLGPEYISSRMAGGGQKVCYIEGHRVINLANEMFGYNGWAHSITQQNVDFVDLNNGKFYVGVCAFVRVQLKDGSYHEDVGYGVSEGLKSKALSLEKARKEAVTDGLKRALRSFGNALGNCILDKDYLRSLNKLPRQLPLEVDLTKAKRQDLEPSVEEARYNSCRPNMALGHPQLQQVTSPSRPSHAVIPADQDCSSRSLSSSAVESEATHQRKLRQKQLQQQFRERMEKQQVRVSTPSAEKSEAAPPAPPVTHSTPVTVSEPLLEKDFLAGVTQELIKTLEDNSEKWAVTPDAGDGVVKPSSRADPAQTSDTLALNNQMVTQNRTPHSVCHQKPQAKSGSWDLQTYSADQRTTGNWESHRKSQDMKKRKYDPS
Excerpt: (§1) To confirm that the selected compounds bind RAD52, we employed water-ligand observation with gradient spectroscopy (WaterLOGSY), an NMR technique, which is based on transfer of magnetization from bulk water to the protein-bound compound of interest ([Dalvit et al., 2001], [2000]). In WaterLOGSY spectrum, if a compound binds to a protein, the compound will receive negative nuclear Overhauser effects (NOEs) due to the slow tumbling of the protein-compound complex, leading to a positive WaterLOGSY peak. […] Similarly, the binding of ‘6’to RAD52 is evident from the positive WaterLOGSY peaks that are clearly detected for this compound (Figure 3a).
(§2) Compound binding to RAD52 and RPA proteins was analyzed using water-ligand observation with gradient spectroscopy (WaterLOGSY) NMR experiments ([Dalvit et al., 2001], [2000]). The WaterLOGSY spectra of compounds in the presence of RAD52 or RPA were acquired using a water NOE mixing time of 1 s and a T2 relaxation filter of 50 ms just before data acquisition to suppress the broad signals derived from protein. The protein buffer used in the experiments contains 10 mM Tris-d11, 75 mM KCl, 0.25 mM EDTA, pH 7.5, and 10% D20. All NMR data were acquired on a Bruker Avance II 800 MHz NMR spectrometer equipped with a sensitive cryoprobe and recorded at 25°C. The ^1H chemical shifts were referenced to 2,2-dimethyl-2-silapentane-5-sulfonate (DSS). NMR spectra were processed using NMR Pipe ([Delaglio et al., 1995]) and analysed using NMR View ([Johnson and Blevins, 1994]).

[3] = molecular target: T2, RPA (Homo sapiens, UniProt P15927+P27694+P35244); assay: WaterLOGSY NMR binding to RPA; conditions: 20-40 μM compound, 3.3 μM RPA
T2 construct: made in house
T2 sequence (P27694 whole entry): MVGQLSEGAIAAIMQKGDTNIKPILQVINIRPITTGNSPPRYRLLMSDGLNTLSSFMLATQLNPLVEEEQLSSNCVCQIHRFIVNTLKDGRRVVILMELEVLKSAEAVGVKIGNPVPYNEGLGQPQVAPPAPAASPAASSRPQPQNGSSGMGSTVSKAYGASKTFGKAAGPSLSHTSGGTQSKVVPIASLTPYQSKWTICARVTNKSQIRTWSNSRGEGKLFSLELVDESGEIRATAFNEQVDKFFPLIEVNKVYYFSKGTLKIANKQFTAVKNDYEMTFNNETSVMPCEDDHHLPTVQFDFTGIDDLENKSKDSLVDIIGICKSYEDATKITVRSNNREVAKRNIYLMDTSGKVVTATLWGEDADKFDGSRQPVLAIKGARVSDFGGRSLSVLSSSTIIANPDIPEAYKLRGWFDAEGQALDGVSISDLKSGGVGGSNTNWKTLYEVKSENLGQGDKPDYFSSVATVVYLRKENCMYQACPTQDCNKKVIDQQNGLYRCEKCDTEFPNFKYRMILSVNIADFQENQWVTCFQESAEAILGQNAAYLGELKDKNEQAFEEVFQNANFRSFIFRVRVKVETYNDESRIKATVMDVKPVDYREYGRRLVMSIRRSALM
T2 sequence (P15927 whole entry): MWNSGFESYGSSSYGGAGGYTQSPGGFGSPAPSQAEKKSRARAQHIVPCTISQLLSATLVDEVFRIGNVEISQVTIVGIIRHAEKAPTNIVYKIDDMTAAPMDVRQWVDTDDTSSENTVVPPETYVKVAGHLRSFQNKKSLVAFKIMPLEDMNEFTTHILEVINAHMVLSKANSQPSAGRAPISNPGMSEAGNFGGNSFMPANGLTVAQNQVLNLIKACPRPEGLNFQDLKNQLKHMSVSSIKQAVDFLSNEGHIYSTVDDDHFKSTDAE
T2 sequence (P35244 whole entry): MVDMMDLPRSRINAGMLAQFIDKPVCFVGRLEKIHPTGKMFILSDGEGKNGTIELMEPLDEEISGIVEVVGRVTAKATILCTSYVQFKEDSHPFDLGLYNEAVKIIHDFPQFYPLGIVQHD
Excerpt: as §1, §2

[4] = molecular target: T3, RPA-ssDNA interaction (Homo sapiens, UniProt P15927+P27694+P35244); assay: FRET titration of the RPA-Cy3-dT30-Cy5 complex; type: binding; conditions: range of tested concentrations
T3 construct: made in house
T3 sequence (P27694 whole entry): as the sequence (P27694 whole entry) above
T3 sequence (P15927 whole entry): as the sequence (P15927 whole entry) above
T3 sequence (P35244 whole entry): as the sequence (P35244 whole entry) above
Excerpt: In the cell, ssDNA is typically found in complex with Replication protein A (RPA), the major eukaryotic ssDNA-binding protein essential for DNA replication, repair and recombination ([Wold, 1997]; [Oakley and Patrick, 2010]; [Chen and Wold, 2014]). The RPA-ssDNA complex is a physiologically relevant substrate for the RAD52-mediated strand annealing. […] RPA binds ssDNA with high affinity and extends the ssDNA to its contour length. In our assays such an extension manifests as a distinct FRET state of ~0.3, which is readily distinguished from a FRET state of ~0.48 of free Cy3-dT30-Cy5 ssDNA, as well as ~0.63 FRET of the stoichiometric ssDNA-RPA-RAD52 complex (see Figure 2—figure supplement 1 and ([Grimme and Spies, 2011]) for details). […] Both, however, inhibited the RAD52 binding to and wrapping of RPA-coated ssDNA with IC50 values identical to those determined without RPA (Figure 2e and Figure 3e).
In all experiments, the FRET values for each data point were corrected for the effects of the compounds on the respective substrate in the absence of RAD52.

[5] = tested on: GM01604 cells (hTERT-immortalized wild-type human fibroblasts); assay: Neutral comet assay, MUS81/EME1/RAD52-dependent DSB formation; type: cell-based; conditions: Homo sapiens, Fibroblast; GM01604, 2 mM HU + 300 nM UCN01, 6h; read-out: IC50, decrease of mean tail moment following HU treatment
Excerpt: In human cells, RAD52 may perform both limited recombination-mediator function in the RAD51-dependent pathway ([Lok and Powell, 2012]; [Benson et al., 1998]; [Feng et al., 2011]) as well as additional RAD51-independent roles ([Lok and Powell, 2012]; [Murfuni et al., 2013]; [McIlwraith and West, 2008]). One of these HR independent roles of RAD52 involves stimulation of MUS81/EME1-dependent DSB formation at replication forks stalled by hydroxyurea (HU) treatment in the absence of cellular checkpoints ([Murfuni et al., 2013]). Since the most likely targets of these MUS81/EME1/RAD52-dependent DSBs are the DNA structures produced by RAD52 ([Murfuni et al., 2013]), we expected this activity to depend on the RAD52-ssDNA interaction (Figure 5a). To confirm this, we assessed DSB formation in checkpoint deficient cells using the neutral comet assay. These assays monitor MUS81/EME1/RAD52-dependent DSB formation upon induction of replication stress by HU treatment in primary fibroblasts immortalized by hTERT expression and treated with UNC01 to inhibit CHK1 kinase (Figure 5b). […] Importantly, these inhibitors recapitulate RAD52 depletion by inhibiting RAD52-MUS81-dependent DSBs at stalled replication forks (Figure 5a–b). […] It also confirms our previous supposition that the target of MUS81/EME1-mediated cleavage under these conditions are indeed the structures annealed by RAD52. […]
To induce RAD52-MUS81-dependent cleavage at arrested replication forks ([Murfuni et al., 2013]), hTERT-immortalized wild-type human fibroblasts (GM01604) were treated with 2 mM HU and 300 nM UCN01 for 6h, in the presence and absence of varying concentrations of ‘1’ or ‘6’. […] Slides were analyzed by a computerized image analysis system (Comet IV, Perceptive UK). To assess the quantity of DNA damage, computer-generated tail moment values (tail length x fraction of total DNA in the tail) were used. […] A minimum of 100 cells were analyzed for each compound concentration point.

[6] = molecular target: T4, interaction between RAD52 and RPA proteins (Homo sapiens, UniProt P43351); assay: Ni-NTA pull-down of the RAD52-RPA interaction; type: binding; conditions: 3 μM RAD52, 3 μM RPA, 3 μM compound
T4 construct: made in house
T4 sequence (P27694 whole entry partner, one chain of several): as the sequence (P27694 whole entry) above
T4 sequence (P15927 whole entry partner, one chain of several): as the sequence (P15927 whole entry) above
T4 sequence (P35244 whole entry partner, one chain of several): as the sequence (P35244 whole entry) above

[7] = molecular target: RAD52;RPA (Homo sapiens?;Homo sapiens?, UniProt P43351;P27694;P15927;P35244 1-418;1-616;1-270;1-121, |); assay: FRET; 1 nM RPA-coated ssDNA titrated with RAD52; FRET about 0.63; FRET: 30 mM Tris-acetate pH 7.5, 1 mM DTT, 0.1 mg/mL BSA, 25 C; HTS: 20 mM Hepes pH 7.5, 1 mM DTT, 0.1 mg/mL BSA, 25 C; conditions: protein: recombinant;recombinant; tags: ;; chain copies: 7;1;1;1; label: Cy3 and Cy5 at the two ends
Chain of RAD52;RPA (P27694 whole entry, chain 2 of 3): as the sequence (P27694 whole entry) above
Chain of RAD52;RPA (P15927 whole entry, chain 3 of 3): as the sequence (P15927 whole entry) above
Chain of RAD52;RPA (P35244 whole entry, chain 4 of 3): as the sequence (P35244 whole entry) above

[8] = molecular target: T5, RAD52 (UniProt P43351 1-418); assay: FRET; 1 nM ssDNA; stoichiometric wrapped complex at about 8 nM RAD52; FRET: 30 mM Tris-acetate pH 7.5, 1 mM DTT, 0.1 mg/mL BSA, 25 C; HTS: 20 mM Hepes pH 7.5, 1 mM DTT, 0.1 mg/mL BSA, 25 C; conditions: protein: recombinant; chain copies: 7; label: Cy3 and Cy5 at the two ends
T5 sequence: T1 sequence (P43351 1-418)

[9] = molecular target: RPA (UniProt P27694;P15927;P35244 1-616;1-270;1-121); assay: FRET; 1 nM RPA, 1 nM ssDNA; FRET about 0.3 versus about 0.48 for free DNA; FRET: 30 mM Tris-acetate pH 7.5, 1 mM DTT, 0.1 mg/mL BSA, 25 C; HTS: 20 mM Hepes pH 7.5, 1 mM DTT, 0.1 mg/mL BSA, 25 C; conditions: protein: recombinant; copies: 1;1;1; label: Cy3 and Cy5 at the two ends
Chain of RPA (UniProt P27694;P15927;P35244 1-616;1-270;1-121) (P27694 whole entry, chain 1 of 3): as the sequence (P27694 whole entry) above
Chain of RPA (UniProt P27694;P15927;P35244 1-616;1-270;1-121) (P15927 whole entry, chain 2 of 3): as the sequence (P15927 whole entry) above
Chain of RPA (UniProt P27694;P15927;P35244 1-616;1-270;1-121) (P35244 whole entry, chain 3 of 3): as the sequence (P35244 whole entry) above

[10] = molecular target: the molecule itself; assay: dynamic light scattering; average hydrodynamic radius of RAD52 (15.8 uM) alone or with equimolar compound; 25 C; 50 mM Tris-HCl pH 7.5, 200 mM KCl, 1 mM DTT, 0.5 mM EDTA

## NC(Cc1cc(O)c(O)cc1O)C(=O)O (racemic) [6-hydroxy-DL-dopa]
[1]
  effect on RAD52 supramolecular assembly: disrupts supramolecular assembly of the RAD52 protein

## O=C(OC1Cc2c(O)cc(O)cc2OC1c1cc(O)c(O)c(O)c1)c1cc(O)c(O)c(O)c1 (stereo not shown) [Compound 6, Epigallocatechin-3-monogallate]
[2]
  binding to RAD52 (WaterLOGSY): physically interact with RAD52 protein
[3]
  binding to RPA (WaterLOGSY): also binds to RPA
[4]
  effect on the RPA-ssDNA interaction: neither ‘1’ nor ‘6’ affected the RPA-ssDNA interaction
[5]
  IC50: ~10 µM
[6]
  effect on the RAD52-RPA interaction: neither ‘1’ nor ‘6’ interfered with the interaction between the two proteins

## TTTTTTTTTTTTTTTTTTTTTTTTTTTTTT (ssDNA) [Cy3-dT30-Cy5]
[7]
  binding result: binds
[8]
  binding result: binds
[9]
  binding result: binds

B1: 6xHis-tagged human RAD52 protein (natural protein, UniProt P43351 1-418, looked up)
chain: T1 sequence (P43351 1-418)
notes: RAD52, human DNA repair protein; the N-terminal domain in PDB 1KNO is an undecameric ring
[10]
  binding result: binds

— paper PMC4982760, “Small-molecule inhibitors identify the RAD52-ssDNA interaction as critical for recovery from replication stress and for survival of BRCA2 deficient cells” (eLife, 2016)
